Source: patent US20170159101A1, “DRUG-RESISTANT P97 ATPASE MUTATIONS” (Cleave Biosciences, Inc., priority 2014, published 2017)

Legend:
Assay in all cases: Biochemical ATPase assay, mutant p97 vs WT
p97 G481A = biological target: T1, p97 G481A (Homo sapiens, UniProt P55072, G481A); settings: recombinant p97 with G481A mutation
T1 construct: His-tag; made in house; host or cells: E. coli B121[DE3]; (so in the source)
Method: (§1) Proteins were expressed in the B121[DE3] strain of E. coli and purified using His-tag mediated nickel purification and gel filtration chromatography.
(§2) ATPase activity of p97 was measured using an ATP regenerating enzymatic system that couples the conversion of phosphoenolpyruvate (PEP) to pyruvate by pyruvate kinase with ADP conversion to ATP. Pyruvate is then converted to lactate by lactate dehydrogenase, which is coupled to the conversion of NADH to NAD^+. The loss of NADH is measured by a decrease in optical absorbance as […] allowing for real-time measurement of ATPase activity. Dose titrations of a test compound were added to the p97 ATPase assay and ATPase activity was monitored. The rate of ATPase activity was fit to four-parameter sigmoidal curve to calculate IC50 of test compound. IC50 values of test compounds for wild type p97 were compared to IC50 values of mutant proteins to identify fold-changes in the potency of test compounds for mutant p97.

p97 T688A = biological target: T2, p97 T688A (Homo sapiens, UniProt P55072, T688A); settings: recombinant p97 with T688A mutation
T2 construct: His-tag; made in house; host or cells: E. coli B121[DE3]; (so in the source)
Method: as §1, §2

p97 A659T = biological target: T3, p97 A659T (Homo sapiens, UniProt P55072, A659T); settings: recombinant p97 with A659T mutation
T3 construct: His-tag; made in house; host or cells: E. coli B121[DE3]; (so in the source)
Method: as §1, §2

p97 Q473P = biological target: T4, p97 Q473P (Homo sapiens, UniProt P55072, Q473P); settings: recombinant p97 with Q473P mutation
T4 construct: His-tag; made in house; host or cells: E. coli B121[DE3]; (so in the source)
Method: as §1, §2

p97 D649A = biological target: T5, p97 D649A (Homo sapiens, UniProt P55072, D649A); settings: recombinant p97 with D649A mutation
T5 construct: His-tag; made in house; host or cells: E. coli B121[DE3]; (so in the source)
Method: as §1, §2

p97 E470D = biological target: T6, p97 E470D (Homo sapiens, UniProt P55072, E470D); settings: recombinant p97 with E470D mutation
T6 construct: His-tag; made in house; host or cells: E. coli B121[DE3]; (so in the source)
Method: as §1, §2

T1 sequence (P55072 whole entry G481A): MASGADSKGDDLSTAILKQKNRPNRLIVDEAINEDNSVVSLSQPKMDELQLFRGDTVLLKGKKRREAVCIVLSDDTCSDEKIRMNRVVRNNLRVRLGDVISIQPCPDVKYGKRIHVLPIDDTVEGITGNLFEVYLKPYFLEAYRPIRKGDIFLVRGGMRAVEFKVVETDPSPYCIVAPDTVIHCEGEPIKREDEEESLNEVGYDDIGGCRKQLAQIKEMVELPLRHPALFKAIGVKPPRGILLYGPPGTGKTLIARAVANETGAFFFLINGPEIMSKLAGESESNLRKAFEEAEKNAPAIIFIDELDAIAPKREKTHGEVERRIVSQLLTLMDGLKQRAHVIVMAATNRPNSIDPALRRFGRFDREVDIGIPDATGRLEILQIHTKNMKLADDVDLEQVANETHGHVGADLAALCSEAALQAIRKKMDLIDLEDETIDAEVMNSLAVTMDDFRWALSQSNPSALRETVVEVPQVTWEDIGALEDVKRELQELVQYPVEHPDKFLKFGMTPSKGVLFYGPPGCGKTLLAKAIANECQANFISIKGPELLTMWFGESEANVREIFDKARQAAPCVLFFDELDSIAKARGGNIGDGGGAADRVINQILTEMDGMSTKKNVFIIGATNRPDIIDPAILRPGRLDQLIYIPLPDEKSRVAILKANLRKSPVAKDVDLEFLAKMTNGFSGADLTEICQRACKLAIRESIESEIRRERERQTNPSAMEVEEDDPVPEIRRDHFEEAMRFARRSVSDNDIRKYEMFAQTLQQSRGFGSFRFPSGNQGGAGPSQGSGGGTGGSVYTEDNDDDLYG
T3 sequence (P55072 whole entry A659T): as the sequence (P55072 whole entry G481A) above, with A481G, A659T counted along it
T5 sequence (P55072 whole entry D649A): as the sequence (P55072 whole entry G481A) above, with A481G, D649A counted along it
T4 sequence (P55072 whole entry Q473P): as the sequence (P55072 whole entry G481A) above, with Q473P, A481G counted along it
T2 sequence (P55072 whole entry T688A): as the sequence (P55072 whole entry G481A) above, with A481G, T688A counted along it
T6 sequence (P55072 whole entry E470D): as the sequence (P55072 whole entry G481A) above, with E470D, A481G counted along it

COc1nc2c(C(N)=O)cccc2n1-c1nc2c(c(NCc3ccccc3)n1)CCCC2 [Compound 5, 1-[4-(benzylamino)-5,6,7,8-tetrahydroquinazolin-2-yl]-2-methoxy-1H-1,3-benzodiazole-4-carboxamide]
Fold Change in IC50 compared to WT Protein (p97 G481A): 4.1 fold | Fold Change in IC50 compared to WT Protein (p97 T688A): 363.0 fold | Fold Change in IC50 compared to WT Protein (p97 A659T): 110.0 fold | Fold Change in IC50 compared to WT Protein (p97 Q473P): 0.3 fold | Fold Change in IC50 compared to WT Protein (p97 D649A): 67.0 fold | Fold Change in IC50 compared to WT Protein (p97 E470D): 15.4 fold
